Source: patent US8367831B2, “Heterocyclic compound or salt thereof and intermediate thereof” (priority 2006, dated 2013)
Converted amounts (≈) assume the structure as drawn. Where a name gives a salt, the structure may show the parent alone. Read-outs that look alike come from different tables or passages of the source.

What was measured:
Assay type in all cases: cell-based
Cytotoxicity test (XTT) = conditions: African green monkey, vero cells, 3 days incubation, absorbance 450 nm, read-out: CC50 (concentration when cell proliferation was inhibited by 50%)
Method: Each test substance was dissolved in dimethyl sulfoxide and was prepared to each concentration with E-MEM containing 10% FBS, and then 0.1 mL of this solution was dispensed into each well of a 96-well microplate. A vero cell suspension containing 3×10^4 cells/mL was prepared with E-MEM containing 10% FBS, and 0.1 mL of the suspension was inoculated to each well. After incubation in 5% CO2 at 37° C. for 3 days, 50 μL of E-MEM containing 1 mg/mL of 2,3-bis-(2-methoxy-4-nitro-5-sulfophenyl)-5-[(phenylamino)carbonyl]-2H-tetrazolium, inner salt, monosodium salt (XTT) and 25 μM of phenazine methosulfate (PMS) was added to each well. After about 2 hours, the absorbance at 450 nm was measured with a microplate reader.
The absorbance ratio of each well supplied with the test substance and the control not containing the test substance was calculated, and the concentration of each compound when cell proliferation was inhibited by 50% (CC50; μg/mL) was calculated.

S. aureus F-3095 = assay: Susceptibility test 1: MIC by micro-dilution method; conditions: Staphylococcus aureus
Method: (§1) Test substances were initially dissolved in dimethylsulfoxide. Antibacterial activities (MICs) of the same compounds were determined by the micro-dilution method as recommended by the Japanese Society of Chemotherapy.
(§2) The bacteria cultured on Mueller-Hinton agar (MHA) plates at 35° C. overnight were suspended in sterile physiological saline in a concentration that was equivalent to 0.5 McFarland. The bacterial inoculum was prepared by 10-fold dilution of this suspension. Approximately 0.005 mL of the bacterial inoculum was inoculated into Cation-adjusted Mueller-Hinton broth (CAMHB, 100 μL/well) containing the test substance and was incubated at 35° C. overnight. The lowest concentration of the test substance at which no bacterial growth was macroscopically observed was determined as the MIC.

S. aureus FDA209P = assay: as above; conditions: Staphylococcus aureus, read-out: MIC (μg/mL) S. aureus FDA209P
Method: as §1, §2

[1] = F3095, read-out: MIC (μg/mL) S. aureus F-3095
[2] = F3095, F-3095 (MDRSA), CAMHB, 35° C. overnight, lowest concentration with no macroscopic growth, read-out: MIC (μg/mL) S. aureus F-3095
[3] = CAMHB, 35° C. overnight, lowest concentration with no macroscopic growth

| SMILES | CC50 at 3 days (Cytotoxicity test (XTT)) [µg/mL] | MIC (S. aureus F-3095; [1]) [µg/mL] | MIC (S. aureus FDA209P) [µg/mL] | MIC (S. aureus F-3095; [2]) [µg/mL] | MIC (S. aureus FDA209P; [3]) [µg/mL] |
| --- | --- | --- | --- | --- | --- |
| COc1cnc2ccc(=O)n(CCN3CCC(NCc4cc5c(cn4)OCCO5)[C@H](O)C3)c2c1 (stereo in doubt) [Example 95, 1-(2-((3R,4R)-4-((2,3-dihydro(1,4)dioxino(2,3-c)pyridin-7-ylmethyl)amino)-3-hydroxypiperidin-1-yl)ethyl)-7-methoxy-1,5-naphthyridin-2(1H)-one] | ≥ 51.2 | 0.0625 (≈ 0.134 µM) | 0.0313 (≈ 0.0669 µM) |  |  |
| Cc1ccc(CNC2CCN(CCn3c(=O)ccc4ccncc43)CC2)cc1F [Example 8, 1-(2-(4-((3-fluoro-4-methylbenzyl)amino)piperidin-1-yl)ethyl)-1,7-naphthyridin-2(1H)-one hydrochloride] | ≥ 51.2 | 0.0313 | 0.0313 |  |  |
| COc1ccc2ncc(=O)n(CCN3CCC(NCc4cc5c(cn4)OCCO5)CC3)c2n1 [Example 10, 4-(2-(4-((2,3-dihydro(1,4)dioxino(2,3-c)pyridin-7-ylmethyl)amino)piperidin-1-yl)ethyl)-6-methoxypyrido(2,3-b)pyrazin-3(4H)-one hydrochloride] | ≥ 51.2 | 0.0156 | 0.0156 |  |  |
| COc1cnc2ccc(=O)n(CCN3CCC(NCc4ccc(C)c(F)c4)CC3)c2c1 [Example 17, 1-(2-(4-((3-fluoro-4-methylbenzyl)amino)piperidin-1-yl)ethyl)-7-methoxy-1,5-naphthyridin-2(1H)-one hydrochloride] |  | 0.0313 | 0.0039 |  |  |
| O=C1CSc2cc(Cl)c(CNC3CCN(CCn4c(=O)ccc5ccncc54)CC3)nc2N1 [Example 30, 7-chloro-6-(((1-(2-(2-oxo-1,7-naphthyridin-1(2H)-yl)ethyl)piperidin-4-yl)amino)methyl)-2H-pyrido(3,2-b)(1,4)thiazin-3(4H)-one] | ≥ 51.2 |  |  | 0.0313 (≈ 0.0645 µM) | 0.0313 (≈ 0.0645 µM) |
| O=C1CSc2ccc(CNC3CCN(CCn4c(=O)ccc5ccncc54)CC3)nc2N1 [Example 33, 6-(((1-(2-(2-oxo-1,7-naphthyridin-1(2H)-yl)ethyl)piperidin-4-yl)amino)methyl)-2H-pyrido(3,2-b)(1,4)thiazin-3(4H)-one] | ≥ 51.2 |  |  | 0.0313 (≈ 0.0695 µM) | 0.0313 (≈ 0.0695 µM) |
| O=c1ccc2ccncc2n1CCN1CCC(NCc2cc(-c3cccs3)on2)CC1 [Example 35, 1-(2-(4-(((5-(2-thienyl)isoxazol-3-yl)methyl)amino)piperidin-1-yl)ethyl)-1,7-naphthyridin-2(1H)-one hydrochloride] | ≥ 51.2 | 0.0313 | 0.0313 |  |  |
| COc1ccc2ccc(=O)n(CCN3CCC(NCc4ccc5c(c4)OCCO5)CC3)c2n1 [Example 44, 1-(2-(4-((2,3-dihydro-1,4-benzodioxin-6-ylmethyl)amino)piperidin-1-yl)ethyl)-7-methoxy-1,8-naphthyridin-2(1H)-one hydrochloride] |  | 0.0313 | 0.0313 |  |  |
| COc1ccc2ccc(=O)n(CCN3CCC(NCc4cc5c(cn4)OCCO5)CC3)c2n1 [Example 45, 1-(2-(4-((2,3-dihydro(1,4)dioxino(2,3-c)pyridin-7-ylmethyl)amino)piperidin-1-yl)ethyl)-7-methoxy-1,8-naphthyridin-2(1H)-one hydrochloride] |  | 0.0625 | 0.0313 |  |  |
| COc1ccc2ncc(=O)n(CCN3CCC(NCc4ccc5c(n4)NC(=O)CS5)CC3)c2n1 [Example 55, 6-(((1-(2-(6-methoxy-3-oxopyrido(2,3-b)pyrazin-4(3H)-yl)ethyl)piperidin-4-yl)amino)methyl)-2H-pyrido(3,2-b)(1,4)thiazin-3(4H)-one] | ≥ 51.2 |  |  | 0.0078 (≈ 0.0162 µM) | 0.0039 (≈ 0.0081 µM) |
| COc1cnc2ccc(=O)n(CCN3CCC(NCc4ccc5c(n4)NC(=O)CO5)CC3)c2c1 [Example 79, 1-(2-(4-((3-oxo-3,4-dihydro-2H-pyrido(3,2-b)(1,4)oxazin-6-yl)methylamino)piperidin-1-yl)ethyl)-7-methoxy-1,5-naphthyridin-2(1H)-one hydrochloride] | ≥ 51.2 | 0.0156 | 0.0078 |  |  |
| COc1cnc2ccc(=O)n(CCN3CCC(NCc4cnc5c(c4)OCCO5)CC3)c2c1 [Example 80, 1-(2-(4-((2,3-dihydro(1,4)dioxino(2,3-b)pyridin-7-yl)methylamino)piperidin-1-yl)ethyl)-7-methoxy-1,5-naphthyridin-2(1H)-one hydrochloride] | ≥ 51.2 | 0.0156 | 0.0078 |  |  |
| COc1cnc2ccc(=O)n(CCN3CCC(NCc4ccc5c(n4)NC(=O)CS5)CC3)c2c1 [Example 90, 6-(((1-(2-(7-methoxy-2-oxo-1,5-naphthyridin-1(2H)-yl)ethyl)piperidin-4-yl)amino)methyl)-2H-pyrido(3,2-b)(1,4)thiazin-3(4H)-one] | ≥ 51.2 |  |  | 0.0313 (≈ 0.0651 µM) | 0.0313 (≈ 0.0651 µM) |
| COc1cnc2ccc(=O)n(CCN3CCC(NCc4cnc(C)c(F)c4)CC3)c2n1 [Example 96, 5-(2-(4-(((5-fluoro-6-methylpyridin-3-yl)methyl)amino)piperidin-1-yl)ethyl)-3-methoxypyrido(2,3-b)pyrazin-6(5H)-one] | ≥ 51.2 |  |  | 0.0625 (≈ 0.147 µM) | 0.0625 (≈ 0.147 µM) |
| COc1cnc2ccc(=O)n(CCN3CCC(NCc4cc5c(cn4)OCCCO5)CC3)c2c1 [Example 118, 1-(2-(4-((3,4-dihydro-2H-(1,4)dioxepino(2,3-c)pyridin-8-ylmethyl)amino)piperidin-1-yl)ethyl)-7-methoxy-1,5-naphthyridin-2(1H)-one hydrochloride] |  | 0.0625 | 0.0625 |  |  |
| CCc1ccc(CNC2CCN(CCn3c(=O)ccc4ncc(OC)cc43)CC2)nc1 [Example 123, 1-(2-(4-(((5-ethylpyridin-2-yl)methyl)amino)piperidin-1-yl)ethyl)-7-methoxy-1,5-naphthyridin-2(1H)-one hydrochloride] |  | 0.125 | 0.0313 |  |  |
| COc1cnc2ccc(=O)n(CCN3CCC(NCc4cc(-c5ccsc5)on4)CC3)c2c1 [Example 133, 7-methoxy-1-(2-(4-(((5-(3-thienyl)isoxazol-3-yl)methyl)amino)piperidin-1-yl)ethyl)-1,5-naphthyridin-2(1H)-one] |  |  |  | 0.0156 (≈ 0.0335 µM) | 0.0078 (≈ 0.0168 µM) |
| CCc1ncc(CNC2CCN(CCn3c(=O)ccc4ncc(OC)cc43)CC2)cc1F [Example 137, 1-(2-(4-(((6-ethyl-5-fluoropyridin-3-yl)methyl)amino)piperidin-1-yl)ethyl)-7-methoxy-1,5-naphthyridin-2(1H)-one hydrochloride] |  | 0.0625 | 0.0313 |  |  |
| COc1cnc2ccc(=O)n(CCN3CCC(NCc4cncc(-c5cccs5)c4)CC3)c2c1 [Example 141, 7-methoxy-1-(2-(4-(((5-(2-thienyl)pyridin-3-yl)methyl)amino)piperidin-1-yl)ethyl)-1,5-naphthyridin-2(1H)-one hydrochloride] |  | 0.0313 | 0.0313 |  |  |
| O=c1ccc2ncc(F)cc2n1CCN1CCC(NCc2cc(-c3ccco3)on2)CC1 [Example 143, 7-fluoro-1-(2-(4-(((5-(2-furyl)isoxazol-3-yl)methyl)amino)piperidin-1-yl)ethyl)-1,5-naphthyridin-2(1H)-one] |  |  |  | 0.0313 (≈ 0.0715 µM) | 0.0313 (≈ 0.0715 µM) |
| COc1cnc2ccc(=O)n(CCN3CCC(NCc4cc5c(cn4)OCCC5)CC3)c2c1 [Example 144, 1-(2-(4-((3,4-dihydro-2H-pyrano(2,3-c)pyridin-6-ylmethyl)amino)piperidin-1-yl)ethyl)-7-methoxy-1,5-naphthyridin-2(1H)-one hydrochloride] |  | 0.0313 | 0.0313 |  |  |
| Cc1cc(=O)n(CCN2CCC(NCc3cc4c(cn3)OCCO4)CC2)c2cc(F)cnc12 [Example 146, 1-(2-(4-((2,3-dihydro(1,4)dioxino(2,3-c)pyridin-7-ylmethyl)amino)piperidin-1-yl)ethyl)-7-fluoro-4-methyl-1,5-naphthyridin-2(1H)-one hydrochloride] |  | 0.0625 | 0.0625 |  |  |
| COc1cnc2ccc(=O)n(CCN3CCC(NCc4cncc(-c5ccco5)c4)CC3)c2c1 [Example 147, 1-(2-(4-(((5-(2-furyl)pyridin-3-yl)methyl)amino)piperidin-1-yl)ethyl)-7-methoxy-1,5-naphthyridin-2(1H)-one] |  |  |  | 0.0625 (≈ 0.136 µM) | 0.0313 (≈ 0.0681 µM) |
| O=c1ccc2ncc(F)cc2n1CCN1CCC(NCc2cc3c(cn2)CCCO3)CC1 [Example 162, 1-(2-(4-((3,4-dihydro-2H-pyrano(3,2-c)pyridin-7-ylmethyl)amino)piperidin-1-yl)ethyl)-7-fluoro-1,5-naphthyridin-2(1H)-one hydrochloride] |  | 0.0625 | 0.0313 |  |  |
